{"source": "patent US11186817B2", "about": "“Chemically defined cell culture media additive” (IUCF-HYU (INDUSTRY-UNIVERSITY COOPERATION FOUNDATION …, priority 2014, dated 2021)", "key": {"CHO DG44 cell line [1]": {"system": "CHO DG44 cell line", "experiment": "Subculture characteristics of CHO DG44 in HY-CDM medium supplemented with THF", "type": "cell-based, Chinese hamster", "settings": "1.6 mg/L THF, HY-CDM with cod liver oil", "description": "(§1) 1. Cell line and media: CHO DG44 cell line was used as a DHFR-deficient cell line. The cell line was passaged 80 times or more and suspension adapted in HY-CDM (in-house) media as chemically defined media. The suspension-adapted cell line was used to evaluate the influence of tetrahydrofolate (THF) and dihydrofolate (DHF) and the growth characteristics in commercial chemically defined media. The HY-CDM media were composed of chemically defined components only. Each HY-CDM medium further included a growth factor. HY-CDM media used in Examples 1, 3, and 4 were free of an animal derived lipid mixture, and HY-CDM media used in Example 2 were supplemented with cod liver oil.\n2. Cell suspension culture: The cell line was inoculated at a density of 4×10^5 cells/ml and cultured in an Erlenmeyer flask with a 30 ml/125 ml working volume on an orbital shaker at 120 rpm under humidified conditions at 37° C. and 5% CO2. Before inoculation, the cells were centrifuged at 1,000 rpm (×162 g) for 5 min, the supernatant was discarded, and the remaining cells were dispersed into single cells in the heated medium. The cells were passaged three times to minimize the influence of the remaining medium under the experimental conditions. The subcultured cells were evaluated.\n(§2) 3. Density of live cells: The density of live cells was analyzed using a hemocytometer (Neubauer improved bright-line, Marienfeld, Germany), an inverted microscope (CK30, Olympus, Japan), and trypan blue dye exclusion.\nA CHO DG44 cell line frozen-stored in an HY-CDM medium supplemented with 1.6 mg/L THF was thawed and subcultured every 2 days. On day 2 after the third passage, a cell density of 21.9±2.2×10^5 cells/ml and a doubling time of 20.3±1.3 h were observed, which were about 28% higher and about 20% more rapid than those of the control (17.1±3.4×10^5 cells/ml and 25.3±3.7 h), respectively (Table 2). The HY-CDM medium included a commercial lipid mixture containing cod liver oil as an animal derived component."}, "CHO DG44 cell line [2]": {"system": "CHO DG44 cell line", "experiment": "Growth of CHO DG44 cell line in commercial chemically defined media with and without THF", "type": "cell-based, Chinese hamster", "settings": "six commercial chemically defined media", "description": "as §1\n2. Cell suspension culture: The cell line was inoculated at a density of 4×10^5 cells/ml and cultured in an Erlenmeyer flask with a 30 ml/125 ml working volume on an orbital shaker at 120 rpm under humidified conditions at 37° C. and 5% CO2. […] The subcultured cells were evaluated.\nas §2\nIn this example, the versatility of the effect of THF addition to induce cell growth was evaluated. […]"}, "[3]": {"settings": "after the third passage, subcultured every 2 days"}}}
{"substance": "tetrahydrofolate [THF]", "values": [{"measurement": "Cell density higher than control", "setting": "CHO DG44 cell line [1]; after the third passage", "result": "about 28%"}, {"measurement": "Doubling time more rapid than control", "setting": "CHO DG44 cell line [1]; after the third passage", "result": "about 20%"}, {"measurement": "Cell density on day 2", "setting": "CHO DG44 cell line [1]; [3]", "result": "21.9±2.2 ×10^5 cells/ml"}, {"measurement": "Doubling time", "setting": "CHO DG44 cell line [1]; [3]", "result": "20.3 ± 1.3", "unit": "h"}, {"measurement": "Density of live cells on day 2 after culture", "setting": "CHO DG44 cell line [1]; number of subcultures 3", "result": "19.2 ×10^5 cells/ml"}, {"measurement": "Doubling time", "setting": "CHO DG44 cell line [1]; number of subcultures 3", "result": 21.6, "unit": "h"}, {"measurement": "Density of live cells on day 2 after culture", "setting": "CHO DG44 cell line [1]; number of subcultures 4", "result": "22.3 ×10^5 cells/ml"}, {"measurement": "Doubling time", "setting": "CHO DG44 cell line [1]; number of subcultures 4", "result": 21.1, "unit": "h"}, {"measurement": "Density of live cells on day 2 after culture", "setting": "CHO DG44 cell line [1]; number of subcultures 5", "result": "19.1 ×10^5 cells/ml"}, {"measurement": "Doubling time", "setting": "CHO DG44 cell line [1]; number of subcultures 5", "result": 18.8, "unit": "h"}, {"measurement": "Density of live cells on day 2 after culture", "setting": "CHO DG44 cell line [1]; number of subcultures 6", "result": "23.3 ×10^5 cells/ml"}, {"measurement": "Doubling time", "setting": "CHO DG44 cell line [1]; number of subcultures 6", "result": 20.2, "unit": "h"}, {"measurement": "Density of live cells on day 2 after culture", "setting": "CHO DG44 cell line [1]; number of subcultures 7", "result": "23.5 ×10^5 cells/ml"}, {"measurement": "Doubling time", "setting": "CHO DG44 cell line [1]; number of subcultures 7", "result": 21.3, "unit": "h"}, {"measurement": "Density of live cells on day 2 after culture", "setting": "CHO DG44 cell line [1]; number of subcultures 8", "result": "24.1 ×10^5 cells/ml"}, {"measurement": "Doubling time", "setting": "CHO DG44 cell line [1]; number of subcultures 8", "result": 18.6, "unit": "h"}, {"measurement": "Effect on cell density and growth rate", "setting": "CHO DG44 cell line [2]", "result": "increased the cell density and growth rate"}]}
